Where “and” joins values, the source holds several entries; their conditions need not be identical. Equal entries are not always repeated.
Legend:
B cell function = B cell function in vivo, antibody production after TNP-Ficoll immunization; details: mice immunized with TNP-Ficoll; 70 mg/kg GDC0941; 30, 60 or 120 mg/kg Compound A; 7 days; FIG. 8
Protocol: Mice were immunized with TNP-Ficoll and treated with 1) vehicle; 2) 70 mg/kg GDC0941; 3) 30 mg/kg Compound A; 4) 60 mg/kg Compound A; or 5) 120 mg/kg Compound A for 7 days. Antibody production was measured as a percentage of control group that were treated with vehicle.

MDA-MB-361 xenografts = experiment: Antitumor activity and tumor regrowth, MDA-MB-361 xenografts (Example 42); assay type: in vivo, Mus musculus
Protocol: (room temperature), shielded from light. The test article Compound A was prepared in 5% NMP+95% PEG400 every 5 to 7 days and stored at approximately 25° C. (room temperature), shielded from light. The control article used in this study was 5% NMP+95% PEG400. Compounds were completely dissolved in NMP by sonication, followed by the addition of an appropriate volume of PEG400, and the final solution was vortexed and sonicated to ensure thorough mixing.
Low-passage MDA-MB-361 cells were grown in Eagle's Minimal Essential Medium (EMEM) media supplemented with 20% fetal bovine serum (FBS) and 1× penicillin/streptomycin (Invitrogen, Carlsbad, Calif., USA) until approximately 80% confluency was reached. Before injection, the cells were detached with GIBCO® trypsin (Invitrogen), washed twice with phosphate-buffered saline (PBS), and resuspended in Roswell Park Memorial Institute (RPMI) media (Invitrogen) without supplements. Cells were resuspended to a final concentration of 5×10^7 cells/mL in RPMI media without supplements. […]
Female 5 to 6-week old female (athymic nu/nu) nude mice were inoculated SC in the flank with 5.0×10^6 MDA-MB-361 cells. Tumor growth was monitored with vernier calipers. The MTV was calculated using the formula V=W^2×L÷2. […] Tumor growth and body weight were measured twice weekly. Percent TGI and body weight change were calculated on Day 29. […] The remaining mice continued on study until Day 65, and tumor size and body weight in these mice were measured every 9 to 11 days.
Antitumor activity was determined by calculating the percent TGI using Equation 1: Percent TGI)=(MTV of the control group−MTV of a treated group)÷MTV of the control group×100
Tumor growth delay was determined by calculating the time until MTV in a given treatment group reached 1000 mm^3 versus the time until MTV in the control group reached 1000 mm^3.
The differences in trends of tumor growth over time between pairs of treatment groups were assessed using linear mixed-effects regression models. These models account for the fact that each animal was measured at multiple time points. […]

PTEN mutant cells = experiment: Western blot of Akt, S6, 4EBP phosphorylation in PTEN mutant cells; assay type: cell-based; details: PTEN-mutant cell line; FIG. 12B

**Q.** How did the “B cell function in vivo (antibody production, percentage of vehicle control)” value (B cell function) turn out when `Nc1nc2cc(-c3ccc4ncc(C(=O)N5CCOCC5)n4c3)ccc2o1` [Compound A] was run?
**A.** not

**Q.** What about the “%TGI (Day 29)” value (MDA-MB-361 xenografts; Compound B 0.3 mg/kg, Compound A 60 mg/kg, alone or combined, PO QD 30 days, Day 29) of the same compound?
**A.** 77.4%

**Q.** What about the “MTV on Day 29” value (MDA-MB-361 xenografts; Compound B 0.3 mg/kg, Compound A 60 mg/kg, alone or combined, PO QD, n = 8) of the same compound?
**A.** 165 mm^3 and 165 ± 105.8 mm^3

**Q.** What about the “%TGI (Day 65)” value (MDA-MB-361 xenografts; based on the control group (n = 4) on Day 65) of the same compound?
**A.** 69.5%

**Q.** What about the “inhibition of Akt phosphorylation at serine 473” value (PTEN mutant cells) of the same compound?
**A.** reduced inhibition

— patent US20160089371A1, “Combination of Kinase Inhibitors and Uses Thereof” (INTELLIKINE, LLC, priority 2013, published 2016)
